One assay deals with α-ENaC (WT αβγ-ENaC). To be noted: HEK-293, 5 and 10 min; returns after 1 h; cited from earlier work.
For assay [1], the system named is αP197fs (co-expressed with βγ-ENaC). The assay can be described thus: Whole-cell patch clamp, αP197fs + WT βγ. The format is cell-based, human. To be noted: read-out: EC50, solnatide, HEK-293, whole-cell, -100 mV, n = 5, p < 0.001 vs WT. How it is done:
(§1) Point mutations of α-, β-, γ- and δ-hENaC and PHA1B frameshift mutations of α-hENaC were prepared with the QuikChange Lightning Site-Directed Mutagenesis Kit (Agilent Technologies, CA, USA). Mutagenic primers were designed individually with the Primer Design Program provided on the producer’s website or for the frameshift mutations the same base changes as reported in patients (see Table 2) were performed. Primers were ordered from Sigma-Aldrich, Vienna, Austria.
(§2) HEK-293 cells were transfected 1 day after cell seeding using X-tremeGENE HP DNA transfection reagent (Roche Diagnostics, Mannheim, Germany) according to the manufacturer’s protocol. A set of WT or mutant αβγ- or δβγ-hENaC, or α-, β-, γ-, or δ-hENaC alone was used, and the ratio of DNA to transfection reagent was 1:3. The expression was highest 48–72 h after transfection.
(§3) Electrophysiological experiments were performed as described in detail by Shabbir et al. ([16]). […] Currents were recorded with the patch clamp method in the whole-cell mode. The chamber contained 1 ml of the bath solution of the following composition (in mM): 145 NaCl, 2.7 KCl, 1.8 CaCl2, 2 MgCl2, 5.5 glucose, and 10 HEPES, adjusted to pH 7.4 with 1 M NaOH solution. Micropipettes were pulled from thin-walled borosilicate glass capillaries (Harvard Apparatus, Holliston, MA, USA) with a DMZ Zeitz Puller to obtain electrode resistances ranging from 2 to 5 MΩ. […]

Another assay relates to αI68fsβγ-ENaC. The assay can be described thus: Whole-cell patch clamp, αI68fs + WT βγ. The format is cell-based, human. How it is done:
as §1, §2, §3

The next assay has as its system αT169fs. In words: Membrane abundance of αT169fs. The format is cell-based, human. Particulars: 200 nM, relative to WT control (=1). As to the method:
Cell surface biotinylation was performed as previously described ([26]). In brief, A549 cells or transiently transfected HEK-293 cells were grown in 10 cm dishes in 37°C, 5% CO2 incubator in DMEM medium supplemented with 5% FBS. […] Medium was aspirated, and then cells were washed twice with 10 ml ice-cold phosphate-buffered saline (PBS), covered with 2.5 mg EZ-Link Sulfo-NHS-SS-Biotin (Thermo Scientific, Rockford, USA), dissolved in 10 ml ice-cold PBS, and incubated at 4°C with gentle agitation for 30 min. Fifty milliliters of quenching solution were added to cells; then cells were scraped in solution and transferred to fresh 50 ml tube. Cell suspension was centrifuged at 500 × g for 3 min. Supernatant was discarded, and 5 ml of Tris-buffered saline (TBS) was added to the cell pellet. The cell pellet was resuspended and centrifuged at 500 × g for 3 min. Supernatant was discarded and cell pellet was resuspended in lysis buffer containing protease inhibitor cocktail (10 µM pepstatin A, 10 µM phenylmethylsulfonyl fluoride, and 10 µM leupeptin) and transferred to fresh 1.5 ml centrifuge tube. Cell pellet was then homogenized on ice by ultrasonication using 1 s bursts and incubated on ice for at least 30 min. Intact cells and nuclei were pelleted by centrifugation at 10,000 × g for 2 min under cooling conditions. […] Exposed films were scanned and quantified using ImageJ (NIH, MD, USA). […]

Assay [2] concerns A549 and H441 cells or HEK-293 cells heterologously expressing human ENaC. On the set-up: method as in PMID 24077967, PMID 25029038. To be noted: cited from earlier work.

Molecules are shown by their SMILES.

For the molecule `C[C@@H]1NC(=O)CNC(=O)[C@H](CCC(=O)O)NC(=O)[C@@H]2CCCN2C(=O)[C@H]([C@@H](C)O)NC(=O)[C@H](CCC(=O)O)NC(=O)[C@H](CCCNC(=N)N)NC(=O)[C@H](CCC(N)=O)NC(=O)CNC(=O)[C@@H](N)CSSC[C@@H](C(=O)O)NC(=O)[C@H](Cc2ccc(O)cc2)NC(=O)[C@H](Cc2c[nH]c3ccccc23)NC(=O)[C@@H]2CCCN2C(=O)[C@H](CCCCN)NC(=O)[C@H](C)NC(=O)[C@H](CCC(=O)O)NC1=O` [solnatide, L-cysteine, L-cysteinylglycyl-L-glutaminyl-L-arginyl-L-α-glutamyl-L-threonyl-L-prolyl-L-α-glutamylglycyl-L-alanyl-L-α-glutamyl-L-alanyl-L-lysyl-L-prolyl-L-tryptophyl-L-tyrosyl-, cyclic (1→17)-disulfide], the “Membrane abundance, solnatide” value in the assay with α-ENaC (WT αβγ-ENaC) is on record as “significant statistically”. Besides, the EC50 is 84 ± 4.9 nM in assay [1] and 73.4 ± 13.4 nM with αI68fsβγ-ENaC (read-out: EC50, solnatide, αI68fs + WT βγ, HEK-293, whole-cell, -100 mV, n = 9). Besides, the “Effect of solnatide on current (words)” value in the assay with αI68fsβγ-ENaC (αI68fsβγ-ENaC, HEK-293) is “induced a current increase in αI68fsβγ-ENaC”. The “Membrane abundance, solnatide 5 min” value with αT169fs (5 min, own control 0.54 ± 0.06, p < 0.001 vs control) was determined as 0.80 ± 0.03. Besides, the “Membrane abundance, solnatide 10 min” value with αT169fs (10 min, own control 0.54 ± 0.06) was found to be 0.46 ± 0.09. For the same molecule, the “Na^+ current-enhancing effect after PNGase F” value in assay [2] was “Elimination of the Na^+ current-enhancing effect”.
